According to PMC5766510, “Development of a PET radioligand for potassium channels to image CNS demyelination” (Scientific Reports, 2018):
Read-outs that look alike come from different tables or passages of the source.

Experiments:
[1] = test system: K^+ channels in explanted mouse optic nerves; test: Compound action potential (CAP) of dissected mouse optic nerves; conditions: for EC50: increase of maximum CAP amplitude, dysmyelinated (Shiverer) optic nerves, 22.2 °C, read-out: Half-maximal effective concentration (EC50)
Method: Therefore, we tested the effects of these compounds on the compound action potential (CAP) of dysmyelinated optic nerves from control and Shiverer mice (Fig. 2E).
Optic nerves were dissected from 12–16 week old Shiverer (Mbp^shi/shi) and control mice (Mbp^+/shi and Mbp^+/+). Compound action potentials (CAP) were recorded using suction electrodes as described by Stys et al.[91]. See SI for additional details.
(§1) CI95 = [Upper Limit. Lower Limit]; where Upper Limit = 10^(logEC50+s.d.) and Lower Limit = 10^(logEC50−s.d.). […]
Dissection of optic nerves: Optic nerves were dissected from 12-16 week old Shiverer (Mbpshi/shi) and control mice (Mbp+/shi and Mbp+/+). Mice were euthanized by CO2 overdose and the optic nerves were quickly dissected between the eyeball and the optic chiasm. The nerves […]
Optic nerve electrophysiology: Compound action potentials (CAP) from dysmyelinated nerves (Shiverer mice, Mbpshi/shi) and myelinated nerves (litermate controls, Mbp+/shi and Mbp+/+) were […]
between two suction electrodes (stimulus and recording electrodes) forming a tight seal on each end. Two additional electrodes were placed in the bath for reference. A supramaximal pulse (250 mV, 20 μs) was applied at the stimulating end of the nerve. The resulting CAP was amplified from the recording electrode using a high impedance low-noise amplifier (EG&G Princeton Applied Research Corporation) sampled at 100 kHz and filtered at 10 kHz. To assess […]
concentrations to the recording chamber after the CAP was allowed to stabilize for 5 min while […]
pulsing repeatedly. After each measurement, the chamber was washed for 5 min (flow 1 […]
mL/min) with oxygenated aCSF. […]
conduction and the temperature was monitored throughout the experiment. CAP recordings were acquired with a SBC6711 board (Innovative Integration) controlled by in-house written software. Analysis of the traces was done using an in-house software. The half-maximal […]
amplitude vs. concentration and fitted to the Hill equation using Origin. […]
Compound action potential of nerve recorded by suction electrode: a theoretical and experimental analysis. […]

[2] = test system: voltage-gated K^+ channels; test: PET imaging in healthy Rhesus macaques; type: in vivo, Rhesus monkeys (macaca mulatta)
Method: Whole body PET/CT imaging was carried out on a Siemens mCT PET/CT. Monkeys were sedated with ketamine and intubated. Following intubation monkeys were placed in prone position on the scanner bed face forward with their head immobilized in a stereotaxic frame. The animals were then anesthetized with 1% isoflurane and kept under anesthesia throughout the whole procedure. A CT image was acquired first (approx. 5 min). After the CT, 5 mCi in 8 mL of saline of [^18F]3-F-4-AP was infused as a bolus through the cubital vein. Scans were obtained in list mode and reconstructed with a 3D ordinary Poisson OSEM algorithm as 30 frames of data (2 × 15 secs, 4 × 30 secs, 8 × 60 secs, 8 × 120 secs, 8 × 240 secs). All activities were decay-corrected to the time of injection of the radiopharmaceutical. Reconstructed images were processed using VivoQuant. ROIs for the major organs were hand drawn based on the CT and used to calculate time-activity curves.
Focused high-resolution brain imaging in Rhesus macaques: brain PET imaging was carried out on a Siemens HRRT PET scanner. Monkeys were sedated with ketamine and intubated. Following intubation monkeys were placed in prone position on the scanner bed face forward with their head immobilized in a stereotaxic frame. The animals were then anesthetized with 1% isoflurane and kept under anesthesia throughout the whole procedure. Monkeys received 5 mCi of [^18F]3-F-4-AP as a bolus through the cubital vein. Scans were obtained in list mode and reconstructed with a 3D ordinary Poisson OSEM algorithm as […] frames of data (8 × 15 secs, 8 × 30 secs, 16 × 60 secs, 16 × 120 secs, 16 × 240 secs). All activities were decay-corrected to the time of injection of the radiopharmaceutical. Reconstructed images were processed using VivoQuant. The Rhesus brain atlas from VivoQuant was fitted to the data and used to calculate time-activity curves for 43 different brain regions.

[3] = Stability in mouse plasma; conditions: after 1 h
[4] = test system: voltage-gated K^+ channels; test: PET/CT imaging in healthy rats; type: in vivo, rat
Text: In order to evaluate the potential use of [^18F]3-F-4-AP as a PET tracer for the brain, we conducted PET combined with computed tomography (PET/CT) imaging in healthy rats after tail vein injection of [^18F]3-F-4-AP (0.15–0.30 μCi/g). We chose rats instead of mice because their larger brain size allows better spatial resolution. […] In order to overcome the limited intrinsic resolution of PET, we conducted ex vivo autoradiography in rats injected with [^18F]3-F-4-AP (1–2 μCi/g).
PET/CT imaging studies were carried out on a Trifoil Triumph™ Trimodality Preclinical microPET/SPECT/CT Imaging System (Norridge, CA) equipped with a X-PET detector constructed from BGO crystals. Rats were anesthetized with a mixture of 2% isoflurane and […] and kept under anesthesia throughout the whole procedure. A CT image was acquired first (at 40 kV, 140-uA beam current, and 256 projections, approx. 5 min). After the CT, 50–150 µCi of [^18F]3-F-4-AP was infused as a bolus through a tail vein injection port and a 25, 30 or 90 min list-mode PET scan performed. PET data are acquired using a sensitivity 5.9%, 250- to 750-keV energy window and 12-ns timing window in list-mode format with spatial resolution of 1.6–2.0 mm (FWHM), which can be binned into 3-dimensional (3D) sinograms corresponding to total and true events, respectively. Images were reconstructed using Fourier rebinning followed by a 2-dimensional ordered-subsets expectation maximization algorithm (OSEM) (4 iterations with 15 subsets). Reconstructed images were processed by using VivoQuant (inviCRO, LLC, Boston) version 2.1. Time activity curves were generated by processing the PET data in 5 min frames.

[5] = Partition coefficient octanol-water (logD); type: physicochemical
Method: The partition coefficient octanol-water at pH 7.4 was measured by adding 0.1 mg of the compound to a 10 mL 50:50 mixture of octanol:PBS. The vial was shaken vigorously followed by 1 min centrifugation at 1,000 g to separate the phases. The drug concentration in each phase of the drug was calculated from the area under the peak on reverse phase HPLC (10 μL sample) using a calibration curve.

C57Bl/6 J mice = test: In vivo effects (signs of neuroexcitation) after intraperitoneal injection; conditions: mouse, different doses
Method: In this experiment, we injected each drug intraperitoneally at different concentrations into mice and looked for signs of neuroexcitation (Fig. 3B).
10-week-old female C57Bl/6 J mice were given an intraperitoneal injection of the drug under investigation and monitored continuously for 4 h. […] At least 72 h passed between injections to the same mice.

[6] = Parallel artificial membrane permeability assay (PAMPA); conditions: for Papp: PAMPA
[7] = molecular target: non-inactivating Shaker channel from D. melanogaster (Drosophila melanogaster, UniProt P08510, DEL6-46); test: cell-based; conditions: relative K^+ current at +20 mV, Hill equation fit; read-out: Half-maximal inhibitory concentration (IC50)
Chain of non-inactivating Shaker channel from D. melanogaster (P08510 other isoform, or with tags, fused parts or gaps DEL6-46): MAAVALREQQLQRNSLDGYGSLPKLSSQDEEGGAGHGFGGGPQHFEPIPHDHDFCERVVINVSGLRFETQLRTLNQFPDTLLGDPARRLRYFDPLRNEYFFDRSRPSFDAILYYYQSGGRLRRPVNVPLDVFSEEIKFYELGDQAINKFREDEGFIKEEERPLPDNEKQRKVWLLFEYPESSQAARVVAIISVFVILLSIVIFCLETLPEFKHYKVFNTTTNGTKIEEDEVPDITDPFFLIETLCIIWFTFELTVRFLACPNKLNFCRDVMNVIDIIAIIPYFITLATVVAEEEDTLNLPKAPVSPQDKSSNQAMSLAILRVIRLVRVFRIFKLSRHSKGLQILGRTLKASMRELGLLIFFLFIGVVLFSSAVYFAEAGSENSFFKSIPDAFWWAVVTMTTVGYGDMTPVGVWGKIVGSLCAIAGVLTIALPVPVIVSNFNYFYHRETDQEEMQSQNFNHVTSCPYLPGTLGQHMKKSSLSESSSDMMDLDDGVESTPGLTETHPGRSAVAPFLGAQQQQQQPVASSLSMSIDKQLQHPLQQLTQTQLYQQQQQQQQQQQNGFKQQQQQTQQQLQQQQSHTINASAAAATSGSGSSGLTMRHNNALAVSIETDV
Method: See SI for additional details.
as §1
exchanging the external solution (top and guard chambers) several times. After application, cells were voltage-clamped at least 5 min at 0mV, then voltage-clamped at -80mV for 1-2 min.
K+ currents were generated by applying series of 50 ms pulses from -70 mV to +40 mV in increments of 10 mV. The effect of the drug was assessed by measuring the relative intensity of the K+ current before and after applying varying drug concentration at a constant voltage (typically +20 mV) and at the end of the test-pulse. Data acquisition and analysis of the traces was performed using Gpatch software (Department of Anesthesiology, University of California, […]
Los Angeles). […]

in vitro = conditions: mouse
[8] = mouse, 1 h
[9] = estimated; cited from earlier work
[10] = Organ distribution of PET tracer in mice by gamma counting; type: in vivo; conditions: mouse, 30 min post intravenous injection, n = 4
Method: Once we had generated the ^18F-labeled drug, we evaluated the uptake of the tracer in mouse blood, brain, liver and kidneys 30 min and 2 h post intravenous administration using automatic gamma counting. […] The uptake in the brain 30 min post injection was higher than blood (standard uptake value (SUV) = 4.71 ± 0.81 vs. 3.27 ± 0.35, n = 4, P = 0.024) providing a suitable time window to conduct PET imaging studies.
50–60 uCi of the [^18F]3-F-4-AP tracer was injected via tail vein to eight 8-week-old female B6 albino mice. At the specified times, the mice were euthanized by anesthetic overdose. Following euthanasia blood was collected by cardiac puncture and transferred to EDTA coated tubes. Other organs (brain, liver and kidneys) were collected by dissection and transferred to glass tubes. Radioactivity was measured using an automatic gamma counter (^18F protocol) and corrected for organ weight and injected dose. Using the original tracer solution, 8 standard solutions ranging from 20 μCi to 10^−5 μCi were prepared, analyzed by gamma counting and used as a calibration curve to correlate peak area of the samples to concentration. SUV was calculated as SUV = (dose organ/organ weight)/(dose injected/body weight) with dose corrected for decay.

[11] = test system: voltage-gated K^+ channels; test: Detection of demyelination by PET in LPC-injected rats; type: in vivo, rat; conditions: PET 0-25 min
Method: After conducting PET imaging with [^18F]3-F-4-AP in healthy rats, we sought to evaluate the capability of this tracer to detect demyelination using the LPC-injection model. The main advantages of this model are that the localization of the lesion is known, that the time course of demyelination is well established, that there is no inflammation or disruption of the BBB, and that the signal in the lesioned area can be directly compared to the contralateral control area[69]. […] Rats were injected with 3 μL of saline (control group) or 1% LPC in saline (demyelination group) on the right side of the cerebellum, targeting the cerebellar white matter. Seven days post injection, which corresponds to the peak of demyelination, the animals were scanned using PET (0–25 min). Several hours after the PET scan, the animals were reinjected with [^18F]3F4AP and their brains studied by ex vivo autoradiography as previously described. Finally, following autoradiography the same tissue sections were stained with LFB. To analyze the data, we placed a spherical voxel of ~1.5 mm radius centered at the injection coordinates and compared the signal in this region with that of an equal size region at the contralateral hemisphere (Fig. 6A). […] Furthermore, there was excellent correlation between PET, ex vivo autoradiography and histological staining for myelin (Fig. 6C). For one animal, we performed serial autoradiography and staining throughout the whole cerebellum (Sup. Fig. 2). As shown in this figure, it is possible to clearly delineate where the lesion starts and finishes based on the autoradiographic signal.
A power analysis (power 0.8, α = 0.05) based on the autoradiography results was used to determine the number of rats needed to detect a statistically significant change in signal. Randomly selected rats were injected with lysolecithin or saline intracranially as described above. 0–25 min dynamic PET scan was performed 6–8 days post intracranial injection (peak of demyelination) after administration of 0.3–0.5 μCi/g. Within 24 h of the PET scan, the rats received a second dose of tracer (1–2 uCi/g), the animals were sacrificed 25 min post injection and their brains processed for autoradiography as described above. Image analyst was not blind to the treatment group. Post autoradiography, LFB staining was performed to assess demyelination. Animals showing physical damage to the brain due to the injection were excluded from the study. Brain ROI analysis was performed using reference atlas with VivoQuant version 2.1 (inviCRO, LLC, Boston).

[12] = LPC-injected rats, 7 days post injection, n = 4
[13] = saline (vehicle only)-injected rats, n = 3

Nc1ccncc1F [3-F-4-AP, 3-fluoro-4-aminopyridine]
EC50 [1]: 96 µM | effect of cold drug (self-block) on brain signal ([2]; Rhesus macaques, 0.1 mg/kg): no changes in brain signal or time activity curves were detected | estimated seizure dose in monkeys ([2]; estimated based on the rodent data): 1.5 to 3.0 mg/kg | remaining in plasma [3]: > 90% | effect of high doses of non-radiolabeled drug (self-block) ([4]; rats): caused the breathing rate to increase dramatically, possibly due to seizures | logD ([5]; pH 7.4, pH 7.4, n = 3, read-out: logD: experimental partition coefficient octanol:water): 0.63 | signs of neuroexcitation, summary in words relative to 4-AP (C57Bl/6 J mice): active at the same concentration as 4-AP and to act faster | Papp [6]: 1.56 ± 0.06 ×10⁻⁶ cm/s | times more permeable than 4-AP ([6]; ratio of Pe): 6.6 times | IC50 [7]: 250 µM | half-life (in vitro; microsomes): 2.4 ± 0.183 h

Nc1ccncc1 [4-AP, 4-aminopyridine]
increases of the CAP amplitude ([1]; dysmyelinated nerves): 2–4 fold | EC50 [1]: 59.2 µM | increases in amplitude and duration of the action potential ([1]; normally myelinated nerves): < 5% | remaining in plasma [8]: > 90% | logD: experimental partition coefficient octanol:water ([5]; pH 7.4): 0.21 | logD ([5]; pH 7.4, logD: experimental partition coefficient octanol:water): 0.23 | Papp [6]: 0.236 ± 0.003 ×10⁻⁶ cm/s | concentration in the cerebrospinal fluid of patients taking the drug [9]: around 50 nM | half-life (in vitro; liver microsomes): 0.883 ± 0.167 h

Nc1ccncc1[18F] [[^18F]3-F-4-AP]
peak SUV in selected brain regions ([2]; Rhesus macaques): 3.2–5.5 | time of peak SUV in selected brain regions ([2]; Rhesus macaques): 2 to 5 min | peak SUV for the whole brain ([2]; Rhesus macaques, within the first five minutes): around 4 | defluorination in vivo ([2]; Rhesus macaques, lack of bone uptake): not defluorinated in vivo | time of peak in brain time-activity curve ([4]; healthy rats, 0-90 min scan): ≤ 5 min | SUV in cerebellum ([4]; healthy rats, 0 to 30 min): 2.09 ± 0.44 | SUV in cortex ([4]; healthy rats, 0 to 30 min): 3.24 ± 0.70 | mean SUV for the whole brain ([4]; healthy rats, 0 to 30 min, n = 3): 2.91 ± 0.65 | defluorination in vivo ([4]; rats, no radioactivity in skull, teeth or bone): does not undergo defluorination in vivo | standard uptake value (SUV) in blood [10]: 3.27 ± 0.35 | standard uptake value (SUV) in brain [10]: 4.71 ± 0.81 | SUV, control side of cerebellum [11, 12]: 2.60 ± 0.21 | SUV, injected side of cerebellum [11, 12]: 3.54 ± 0.53 | SUV, control side of cerebellum [11, 13]: 2.67 ± 0.77 | SUV, injected side of cerebellum [11, 13]: 2.59 ± 0.78
